This assay has as its system L1210 leukemia ip in BDF1 mice, survival T/C. The assay is described as follows: NCI In Vivo Anticancer Drug Screen. Data for tumor model L1210 Leukemia (intraperitoneal) in B6D2F1 (BDF1) mice. The note with it: higher = longer survival. The procedure, abridged:
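Tumor cells were implanted, animals were treated, and survival was followed. The result divides the treated measurement by the vehicle-control measurement.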

[1] abbreviates: endpoint: mean survival time, dose: 100.0 mg/kg/injection, schedule: Q01DX001 (ip), vehicle: saline.
[2] abbreviates: endpoint: mean survival time, dose: 200.0 mg/kg/injection, schedule: Q01DX001 (ip), vehicle: saline.
[3] abbreviates: endpoint: mean survival time, dose: 400.0 mg/kg/injection, schedule: Q01DX001 (ip), vehicle: saline.
[4] abbreviates: endpoint: mean survival time, dose: 100.0 mg/kg/injection, schedule: Q04DX003 (ip), vehicle: Klucel (hydroxypropylcellulose) (HPC).
Setting [5] is: endpoint: mean survival time, dose: 100.0 mg/kg/injection, schedule: Q01DX001 (ip), vehicle: carboxymethylcellulose (CMC).
Where [6] appears, read: endpoint: mean survival time, dose: 200.0 mg/kg/injection, schedule: Q01DX001 (ip), vehicle: carboxymethylcellulose (CMC).
Where [7] appears, read: endpoint: mean survival time, dose: 400.0 mg/kg/injection, schedule: Q01DX001 (ip), vehicle: carboxymethylcellulose (CMC).

Drawing on PubChem BioAssay AID248 (DTP/NCI, 2004), this text covers T/C for 13 compounds.

SMILES strings stand for the structures. Values joined by “and” are separate entries in the source; they are usually repeats but may differ in a detail not shown here. Identical values can stand only once. Toxic doses and inconclusive results are not listed.

Take `C/C(=N\N=C(N)N)c1ccc(NC(=O)Nc2ccc(/C(C)=N/N=C(N)N)cc2)cc1`: the T/C (endpoint: mean survival time, dose: 10.0 mg/kg/injection, schedule: Q01DX009 (ip), vehicle: saline) is 109 % of control and 124 % of control; the T/C (endpoint: mean survival time, dose: 18.0 mg/kg/injection, schedule: Q01DX009 (ip), vehicle: water) was 187 % of control; the T/C (endpoint: mean survival time, dose: 20.0 mg/kg/injection, schedule: Q01DX005 (ip), vehicle: saline) was 157 % of control; the T/C (endpoint: mean survival time, dose: 30.0 mg/kg/injection, schedule: Q01DX009 (ip), vehicle: carboxymethylcellulose (CMC)) is 152 % of control; the T/C (endpoint: mean survival time, dose: 30.0 mg/kg/injection, schedule: Q01DX009 (ip), vehicle: water) was 188 % of control; the T/C (endpoint: mean survival time, dose: 40.0 mg/kg/injection, schedule: Q01DX005 (ip), vehicle: saline) was 150 % of control. For the same compound, the T/C reads like this: (endpoint: mean survival time, dose: 40.0 mg/kg/injection, schedule: Q01DX009 (ip), vehicle: water) 174 % of control; (endpoint: mean survival time, dose: 50.0 mg/kg/injection, schedule: Q01DX009 (ip), vehicle: carboxymethylcellulose (CMC)) 189 % of control; (endpoint: mean survival time, dose: 50.0 mg/kg/injection, schedule: Q01DX009 (ip), vehicle: water) 259 % of control; (endpoint: mean survival time, dose: 65.0 mg/kg/injection, schedule: Q01DX009 (ip), vehicle: water) 167 % of control; (endpoint: mean survival time, dose: 80.0 mg/kg/injection, schedule: Q01DX005 (ip), vehicle: saline) 177 % of control; (endpoint: mean survival time, dose: 83.3 mg/kg/injection, schedule: Q01DX009 (ip), vehicle: carboxymethylcellulose (CMC)) 257 % of control. The T/C was 243 % of control (endpoint: mean survival time, dose: 83.3 mg/kg/injection, schedule: Q01DX009 (ip), vehicle: water); 172 % of control (endpoint: mean survival time, dose: 108.0 mg/kg/injection, schedule: Q01DX015 (ip), vehicle: saline); 226 % of control (endpoint: mean survival time, dose: 160.0 mg/kg/injection, schedule: Q01DX005 (ip), vehicle: saline); 207 % of control (endpoint: mean survival time, dose: 180.0 mg/kg/injection, schedule: Q01DX015 (ip), vehicle: saline); 157 % of control (endpoint: mean survival time, dose: 400.0 mg/kg/injection, schedule: Q01DX001 (ip), vehicle: other); 188 % of control (endpoint: mean survival time, dose: 600.0 mg/kg/injection, schedule: Q01DX001 (ip), vehicle: other). Besides, the T/C is 162 % of control (endpoint: median survival time, dose: 50.0 mg/kg/injection, schedule: Q01DX009 (ip), vehicle: saline); 228 % of control (endpoint: median survival time, dose: 60.0 mg/kg/injection, schedule: Q03HX024 (ip), vehicle: water); 166 % of control (endpoint: median survival time, dose: 75.0 mg/kg/injection, schedule: Q03HX024 (ip), vehicle: water); 284 % of control (endpoint: median survival time, dose: 90.0 mg/kg/injection, schedule: Q03HX024 (ip), vehicle: water); 215 % of control and 262 % of control (endpoint: median survival time, dose: 100.0 mg/kg/injection, schedule: Q01DX009 (ip), vehicle: saline); 168 % of control (endpoint: median survival time, dose: 105.0 mg/kg/injection, schedule: Q03HX024 (ip), vehicle: water). The T/C is, setting by setting: (endpoint: median survival time, dose: 120.0 mg/kg/injection, schedule: Q03HX024 (ip), vehicle: water) 303 % of control; (endpoint: median survival time, dose: 200.0 mg/kg/injection, schedule: Q01DX009 (ip), vehicle: saline) 260 % of control and 312 % of control.
For `O=C(O)COC(C[N+](=O)[O-])C(Cl)(Cl)Cl` (configuration not stated), the T/C runs as follows: (endpoint: mean survival time, dose: 100.0 mg/kg/injection, schedule: Q01DX009 (ip), vehicle: saline with Tween-80) 95 % of control; (endpoint: mean survival time, dose: 200.0 mg/kg/injection, schedule: Q01DX009 (ip), vehicle: saline with Tween-80) 92 % of control; (endpoint: mean survival time, dose: 400.0 mg/kg/injection, schedule: Q01DX009 (ip), vehicle: saline with Tween-80) 88 % of control.
Turning to `CSC(=NC#N)SC`, the T/C (endpoint: mean survival time, dose: 1.5 mg/kg/injection, schedule: Q01DX009 (ip), vehicle: Klucel (hydroxypropylcellulose) (HPC)) is 100 % of control; the T/C (endpoint: mean survival time, dose: 1.5 mg/kg/injection, schedule: Q04DX003 (ip), vehicle: Klucel (hydroxypropylcellulose) (HPC)) was 100 % of control; the T/C (endpoint: mean survival time, dose: 3.0 mg/kg/injection, schedule: Q01DX009 (ip), vehicle: Klucel (hydroxypropylcellulose) (HPC)) was 101 % of control; the T/C (endpoint: mean survival time, dose: 3.0 mg/kg/injection, schedule: Q04DX003 (ip), vehicle: Klucel (hydroxypropylcellulose) (HPC)) was 90 % of control; the T/C (endpoint: mean survival time, dose: 6.0 mg/kg/injection, schedule: Q01DX009 (ip), vehicle: Klucel (hydroxypropylcellulose) (HPC)) was 95 % of control; the T/C (endpoint: mean survival time, dose: 6.0 mg/kg/injection, schedule: Q04DX003 (ip), vehicle: Klucel (hydroxypropylcellulose) (HPC)) is 97 % of control.
Regarding `CC(C)CC(C)NCCOC(=O)c1ccc(N)cc1` (configuration not stated), the T/C runs as follows: (endpoint: mean survival time, dose: 9.38 mg/kg/injection, schedule: Q01DX001 (ip), vehicle: other) 104 % of control; (endpoint: mean survival time, dose: 18.75 mg/kg/injection, schedule: Q01DX001 (ip), vehicle: other) 96 % of control; (endpoint: mean survival time, dose: 37.5 mg/kg/injection, schedule: Q01DX001 (ip), vehicle: other) 106 % of control; (endpoint: mean survival time, dose: 75.0 mg/kg/injection, schedule: Q01DX001 (ip), vehicle: carboxymethylcellulose (CMC)) 96 % of control.
In the case of `CNNC(=O)c1ccccc1`, the T/C is 119 % of control (endpoint: mean survival time, dose: 6.25 mg/kg/injection, schedule: Q04DX002 (ip), vehicle: saline); 97 % of control (endpoint: mean survival time, dose: 12.5 mg/kg/injection, schedule: Q04DX002 (ip), vehicle: saline); 97 % of control (endpoint: mean survival time, dose: 25.0 mg/kg/injection, schedule: Q04DX002 (ip), vehicle: saline); 94 % of control and 97 % of control (endpoint: mean survival time, dose: 50.0 mg/kg/injection, schedule: Q04DX002 (ip), vehicle: saline); 98 % of control (endpoint: mean survival time, dose: 100.0 mg/kg/injection, schedule: Q04DX002 (ip), vehicle: saline).
Consider `O=C(O)CCCCCCC(=O)OCC(=O)c1ccc(-c2ccccc2)cc1`, for which the T/C under setting [1] was 94 % of control, the T/C under setting [2] was 91 % of control and the T/C under setting [3] is 91 % of control.
Take `O=C(CCN1CC1)NCCc1ccccc1`: the T/C is 92 % of control (endpoint: mean survival time, dose: 20.0 mg/kg/injection, schedule: Q04DX003 (ip), vehicle: Klucel (hydroxypropylcellulose) (HPC)); 95 % of control (endpoint: mean survival time, dose: 40.0 mg/kg/injection, schedule: Q04DX003 (ip), vehicle: Klucel (hydroxypropylcellulose) (HPC)); 86 % of control under setting [4].
Consider `CC1(c2ccco2)CCC(=O)CC1=O` (configuration not stated), for which the T/C was 101 % of control under setting [4]; 98 % of control (endpoint: mean survival time, dose: 200.0 mg/kg/injection, schedule: Q04DX003 (ip), vehicle: Klucel (hydroxypropylcellulose) (HPC)); 98 % of control (endpoint: mean survival time, dose: 400.0 mg/kg/injection, schedule: Q04DX003 (ip), vehicle: Klucel (hydroxypropylcellulose) (HPC)).
On to `CCC(=O)OC1CCC2C3CCC4=CC(=O)CCC4(C)C3CCC12C` (configuration not stated), for which the T/C reads like this: under setting [5], 107 % of control; under setting [6], 96 % of control; under setting [7], 96 % of control.
For the compound `CC(CCc1ccc(O)cc1)OC=O` (configuration not stated), the T/C is, setting by setting: (endpoint: mean survival time, dose: 222.0 mg/kg/injection, schedule: Q01DX Z (ip), vehicle: saline) 104 % of control; (endpoint: mean survival time, dose: 333.0 mg/kg/injection, schedule: Q01DX Z (ip), vehicle: saline) 91 % of control.
For `CC(=O)OCC1OC(Sc2cccc3ccccc23)C(OC(C)=O)C(OC(C)=O)C1OC(C)=O` (configuration not stated), the T/C runs as follows: under setting [1], 104 % of control; under setting [2], 93 % of control; under setting [3], 98 % of control.
In the case of `S=C(NCc1ccc(Cl)c(Cl)c1)Nc1ccccc1`, the T/C was 102 % of control (endpoint: mean survival time, dose: 25.0 mg/kg/injection, schedule: Q01DX009 (ip), vehicle: Klucel (hydroxypropylcellulose) (HPC)); 90 % of control (endpoint: mean survival time, dose: 50.0 mg/kg/injection, schedule: Q01DX009 (ip), vehicle: Klucel (hydroxypropylcellulose) (HPC)); 87 % of control and 90 % of control (endpoint: mean survival time, dose: 100.0 mg/kg/injection, schedule: Q01DX009 (ip), vehicle: Klucel (hydroxypropylcellulose) (HPC)).
As to `O=C(O)c1ccc2c(c1)C(=O)c1ccccc1-2`, the T/C was 107 % of control under setting [5], 100 % of control under setting [6] and 107 % of control under setting [7].
